Assay results taken from paper PMC5786788, “Antimicrobial Octapeptin C4 Analogues Active against Cryptococcus Species” (Antimicrobial Agents and Chemotherapy, 2018).
Converted amounts (≈) assume the structure as drawn. “Also recorded” adds a separate entry of the source. Where a SMILES comes first, the peptide text is derived from it. Bridges are numbered along the chain shown (N, C = ends). [ ]: non-standard residue; d: D form. The star is where a group is joined. Decanoyl(3R-OH) = CCCCCCC[C@@H](O)CC(=O)*; dDab = NCC[C@@H](N)C(=O)O; Dab = NCC[C@H](N)C(=O)O

Legend:
C. gattii MMRL 2651 = conditions: 72 h
Protocol: (§1) A broth microdilution assay was initially used to characterize the antifungal activity of the cyclic lipopeptides ([39], [40]). […] common pathogenic yeasts (C. albicans, C. glabrata, C. parapsilosis, C. neoformans, and C. gattii) and one pathogenic mold (A. fumigatus) were tested to determine the MIC for each compound (Table 1) using broth microdilution. […] The only structural difference between these molecules is the presence of a phenylalanine residue at position 6 in PMB; in PME a D-leucine is present at this location (Fig. 1).
(§2) Fungal strains were stored in 15% glycerol at −80°C until use. The fungal strains used were H99 (C. neoformans type strain) ([55]), cap59Δ (an acapsular H99 mutant) ([56]), ATCC 90113 (C. neoformans), MMRL 2651 (C. gattii), ATCC 90028 (Candida albicans), ATCC 90030 (Candida glabrata), ATCC 22019 (Candida parapsilosis), and ATCC MYA 3626 (Aspergillus fumigatus). Yeasts were cultured in liquid (1% yeast extract, 2% Bacto peptone, 2% glucose) or solid (additional 2% agar) yeast extract-peptone-dextrose (YPD) media at 30°C and maintained at 4°C for no longer than 2 weeks. A. fumigatus was prepared on potato dextrose medium at 30°C and maintained at 4°C for no longer than 2 weeks.
(§3) The MICs of the yeast strains for PMB, PME, and octapeptin C4 and its derivatives were determined in accordance with CLSI M27-A2 guidelines using YNB (Becton Dickinson, USA) medium supplemented with 10 mM ammonium sulfate and 2% glucose, a final inoculum concentration of 1.5 × 10^3 to 2.0 × 10^3 cells/ml, and incubation at 35°C for 72 h ([39]). […] The MICs for PMB, PME, and octapeptin C4 for A. fumigatus were determined in accordance with the CLSI M38-A2 guidelines ([40]) using synthetic RPMI 1640 medium (with glutamine, without bicarbonate and with phenol red; Life Technologies, USA). The final inoculum concentration was 0.4 × 10^4 to 5 × 10^4 cells/ml, with incubation at 35°C for 48 h. […] All assays were completed in triplicate. Fluconazole was used as a positive control where the MIC was determined at both 50% growth (in accordance with CLSI M27-A2 guidelines) and when there was a “no visible growth” reading.

C. neoformans ATCC 90113 = conditions: ATCC 90113, 72 h
Protocol: as §1, §2, §3

C. neoformans H99 = system: C. neoformans H99
Protocol: as §1, §2, §3

[1] = system: capsule-induced or -suppressed C. neoformans H99 cells; assay: In vitro time course assay of capsule influence; assay type: cell-based, Cryptococcus neoformans; conditions: H99; PMB at 12.5 μM, octapeptin C4 at 1.56 μM; 0-8 h; two replicates
Protocol: (A) C. neoformans grown on capsule inducing RPMI 1640 agar medium (without L-glutamine and sodium bicarbonate) with incubation at 37°C in 5% CO2 for 3 days. Scale bar, 20 μm. (B) C. neoformans grown on capsule-suppressing media, YPD containing 1 M NaCl at 30°C in ambient air for 3 days. […] The data represent the means of two replicates, and the error bars represent the standard errors of the mean (SEM).
Capsule induction of strain H99 was achieved as described by Zhai et al. ([37]) with growth on RPMI 1640 (without L-glutamine and sodium bicarbonate) (Sigma, Australia) agar medium and incubation at 37°C in 5% CO2 and capsule suppression by growth on YPD containing 1 M NaCl at 30°C in ambient air. After 3 days, the cells from each culture were collected, washed twice with phosphate-buffered saline (PBS), and resuspended in PBS to avoid changes in the capsule at a density of 1,500 to 2,000 cells/ml. Cell suspensions were treated with test compounds at the determined MIC value. The compounds tested were PMB sulfate, octapeptin C4, and the octapeptin C4 alanine scan derivatives P1L, P1D, P4, P3, P4L, P4D, P5, P6, P7, and P8. At 0, 1, 2, 4, 6, and 8 h after inoculation, samples from each treatment were spread onto a YPD plate, followed by incubation at 30°C for 3 days, at which time the colonies were counted. The assay was repeated in duplicate, and paired sample t tests were performed using GraphPad Prism v7.0 (GraphPad Software, USA).

[2] = system: melanized and nonmelanized C. neoformans cells; assay: In vitro time course assay of melanization effect; assay type: cell-based, Cryptococcus neoformans; conditions: melanin induced on L-DOPA agar vs suppressed on YPD agar; PMB at 12.5 μM, octapeptin C4 at 1.56 μM; 0-8 h; two replicates
Protocol: (A) Melanin suppressed C. neoformans. (B) Melanin induced C. neoformans. […] Samples from each flask were taken 0, 1, 2, 4, 6, and 8 h after inoculation, spread onto a YPD plate, and incubated at 30°C for 3 days, at which time the colonies were counted. The data represent the means of two replicates, and the error bars represent the SEM.
Melanization was induced by growth on L-DOPA agar medium at 30°C and suppressed by growth on YPD agar medium at 30°C. Cells were grown over 3 days and collected, washed twice in PBS, and then resuspended in PBS at a density of 1,500 to 2,000 cells/ml. Aliquots of the cells were treated with PMB sulfate, octapeptin C4, and the octapeptin C4 derivatives P1L, P1D, P4, P3, P4L, P4D, P5, P6, P7, and P8 at the determined MICs. At 0, 1, 2, 4, 6, and 8 h after inoculation, samples of the suspension were spread onto YPD agar and incubated at 30°C for 3 days, and the colonies were counted. The assay was repeated in duplicate, and paired sample t tests were performed in GraphPad Prism v7.0.

human kidney-2 cell line = conditions: cited from earlier work

SMILES: CCCCCCC[C@@H](O)CC(=O)N[C@H](CCN)C(=O)N[C@H]1CCNC(=O)[C@H](CC(C)C)NC(=O)[C@H](CCN)NC(=O)[C@H](CCN)NC(=O)[C@H](CC(C)C)NC(=O)[C@@H](Cc2ccccc2)NC(=O)[C@H](CCN)NC1=O [Octapeptin C4, octapeptin C4] ({Decanoyl(3R-OH)}-[dDab][Dab][Dab][dF]L[Dab][Dab]L; lactam 2-C (inferred); N-terminus assumed)
- MIC C. gattii (C. gattii MMRL 2651): 3.13 µg/mL (≈ 3 µM)
- MICs against various Cryptococcus strains: MMRL 2651 (C. gattii MMRL 2651): 3.13 µg/mL
- MIC C. neoformans ATCC 90113 (C. neoformans ATCC 90113): 1.56 µg/mL (≈ 1.49 µM)
- MICs against various Cryptococcus strains: ATCC 90113 (C. neoformans ATCC 90113): 1.56 µg/mL
- MIC C. neoformans H99 (C. neoformans H99; H99, 72 h): 1.56 µg/mL (≈ 1.49 µM)
- MICs against various Cryptococcus strains: H99 (C. neoformans H99; H99, 72 h): 1.56 µg/mL
- fold more potent than PMB (C. neoformans H99; by MIC against C. neoformans): ~8 fold
- fold more potent than PME (C. neoformans H99; by MIC against C. neoformans): > 60 fold
- effect of capsule formation on fungicidal activity [1]: retarded the fungicidal activity; also recorded: small but statistically significant increase in survival
- effect of melanization on fungicidal activity [2]: slightly enhanced
- 50% cytotoxic concentration (human kidney-2 cell line): 31 µM
